In PubChem BioAssay (NCI):
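Values below derive from 48-hour exposures of cells grown in 96-well plates, with endpoints linearly interpolated between the two concentrations bracketing the appropriate inhibition level. Here, GI50 denotes the concentration required for 50% inhibition of growth. At the TGI there is no net growth.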

Tests used:
Experiment in all cases: growth of human tumour cells (NCI), 48 h
[1] = system: SF-295 CNS
[2] = system: OVCAR-4 ovarian
[3] = system: MCF7 breast
[4] = system: HT29 colon
[5] = system: NCI/ADR-RES ovarian
[6] = system: MDA-MB-231 breast
[7] = system: T-47D breast
[8] = system: SK-OV-3 ovarian
[9] = system: HCC-2998 colon
[10] = system: HOP-92 NSCLC

Structure (SMILES)	GI50 [1] [µM]	TGI [1] [µM]	GI50 [2] [µM]	TGI [2] [µM]	GI50 [3] [µM]	TGI [3] [µM]	GI50 [4] [µM]	TGI [4] [µM]	GI50 [5] [µM]	TGI [5] [µM]	GI50 [6] [µM]	TGI [6] [µM]	GI50 [7] [µM]	TGI [7] [µM]	GI50 [8] [µM]	TGI [8] [µM]	GI50 [9] [µM]	TGI [9] [µM]	GI50 [10] [µM]	TGI [10] [µM]
O=C1OC(=O)C(c2c[nH]c3ccccc23)=C1c1c[nH]c2ccccc12	> 25	> 25	> 25	> 25	> 25	> 25	> 25	> 25	> 25	> 25	14.5	> 25	> 25	> 25	> 25	> 25	> 25	> 25	–	–
COc1ccc2nc3cc([N+](=O)[O-])ccc3c(NCCCCCN(C)C)c2c1	0.353	2.52	0.14	0.546	0.0514	1.04	0.0643	0.38	2.13	13.5	0.249	1.93	0.307	1.73	0.351	2.36	–	–	0.148	0.49
COc1cccc(/C=C/C(=O)c2cccc(Nc3nc(Nc4ccccc4)nc(Nc4ccccc4)n3)c2)c1	1.96	–	19.5	> 100	1.37	6.91	4.36	> 81.7	27.3	> 100	32.7	> 100	6.15	> 79.8	> 78.5	> 100	7.35	26.2	1.24	50.5
C[C@H](Nc1ncnc2nc[nH]c12)c1cc2cccc(Cl)c2c(=O)n1-c1ccccc1	1.54	> 100	> 100	> 100	3.16	> 100	5.92	> 100	> 100	> 100	46.4	> 100	1.58	> 43.5	10.8	> 100	28.4	> 100	1.38	69.7
Cc1occc1C(=S)Nc1ccc(Cl)c(COC(C)(C)C)c1	–	27.9	–	33.1	–	31.6	–	29.6	–	33.4	–	32	–	26.9	–	34	–	32.2	–	30.4
CCN(CC)CCn1ccc(=O)c2cc3c(=O)ccn(CCN(CC)CC)c3c(C)c21	–	17.2	–	9.43	–	> 100	–	12.7	–	5.2	–	18.3	–	50	–	15.9	–	2.93	–	19.5
COC(=O)[C@]12CC[C@@H](C)[C@H](C)[C@@H]1C1=CC[C@@H]3[C@@]4(C)C[C@@H](OC(C)=O)[C@H](O)[C@@](C)(COC(C)=O)[C@@H]4[C@H](O)C[C@@]3(C)[C@]1(C)CC2	1.82	4.07	3.23	14.2	2.01	5.71	1.82	3.7	2.68	7.54	1.87	4.81	2.44	8.02	3.27	10.3	2.14	4.57	1.53	5.68
C=CCc1c2c(c(OC)c3ccoc13)C(=O)/C(=C/c1ccccc1OC)O2	3.67	> 100	3.34	> 100	2.92	> 100	3.98	> 100	2.82	10.8	4.59	> 100	4.34	> 100	5.45	35.1	2.85	7.85	2.07	6.2
CC1(C)SC2C(NC(=O)C(N)c3ccccc3)C(=O)N2C1C(=O)O (stereo not drawn)	–	> 100	–	–	–	> 100	–	> 100	–	> 100	–	> 100	–	> 100	–	–	–	> 100	–	> 100
CCN(CC)c1ccc(C(=C2C=CC(=[N+](CC)Cc3cccc(S(=O)(=O)O)c3)C=C2)c2ccc(N(CC)Cc3cccc(S(=O)(=O)O)c3)cc2)cc1	2.81	> 47	8.71	> 100	3.66	> 100	3.4	> 88.9	> 100	> 100	9.61	> 92.6	3.14	> 29.3	5.04	27.1	5.78	> 100	15.2	65.8
Cc1ccc2c(ccc3c[n+]4c5ccccc5ccc4n32)c1	1.56	6.91	1.32	4.64	2.07	8.49	2.08	8.77	> 100	> 100	2.7	11.6	0.618	3.59	1.76	6.94	1.27	2.98	1.54	5.47
COc1ccc(C(=O)/C=C/c2ccc(/C=C/c3cc(OC)c(OC)c(OC)c3)cc2)cc1	9.01	> 100	6.31	47.3	2.18	36.6	4.17	> 100	5.46	> 100	10.2	> 100	6.19	> 100	15.6	64.5	38.5	> 100	–	–
O=C(Cn1ccc(=O)[nH]c1=O)Nc1ccc(C(=O)O)c(O)c1	–	> 100	–	> 100	–	> 100	–	> 100	–	> 100	–	> 100	–	> 100	–	–	–	–	–	> 100
O=C(CC(=O)CC(O)(C(F)(F)F)C(F)(F)F)CC(O)(C(F)(F)F)C(F)(F)F	–	> 10	–	> 10	–	> 10	–	> 10	–	> 10	–	> 10	–	> 10	–	> 10	–	–	–	> 10
